Test results from patent US11000033B2, “Ketone or oxime compound, and herbicide” (NISSAN CHEMICAL CORPORATION, priority 2014, dated 2021).

Key:
Type in all cases: in vivo
Leptochloa chinensis = assay: Test Example 3: herbicidal effect by foliage application, Wagner pot (symbol D); conditions: for D (Leptochloa chinensis) herbicidal effect grade: Table 24
Method in brief: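 In a shallow-flooded alluvial soil system held at 25–30 °C, plants including rice grew for 14 days and were then sprayed over the foliage with emulsion diluted to a fixed herbicide amount. Visual rating followed at 3 weeks.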

soybean = assay: Test Example 5: effect on crop by foliage application, plastic box (symbol d); conditions: 3 weeks after application
Method in brief: (§1)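 Foliage-application test plants come from spot sowing in sterilized diluvial soil under a soil layer of about 1.5 cm, grown at 25° C. to 30° C. in a greenhouse.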

Monochoria vaginalis = assay: Test Example 2: herbicidal activity, application during weed generation in submerged conditions (symbol C); conditions: Table 23, grade 0-5 by criteria of Test Example 1
Method in brief: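 Compound was applied as a water-diluted emulsion into the standing water of flooded pots (4 cm) once co-sown weeds reached one to two leaves. Greenhouse temperature was 25° C. to 30° C., soil was alluvial, and each species was rated visually after 3 weeks.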

corn [1] = assay: Test Example 4: effect on crop by soil treatment (symbol c); conditions: for c: corn, effect grade on crop: 320 g/ha; for Effect on crop grade, c: corn: application herbicide amount 320 g/ha
Method in brief: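 The test used sterilized diluvial soil. Seed was set down in spots and overlaid with about 1.5 cm of soil before growth in a greenhouse kept at 25° C. to 30° C.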

rice = assay: Test Example 4: effect on crop by soil treatment (symbol b); conditions: for b: directly sowed rice plant, effect grade on crop: 320 g/ha; for Effect on crop grade, b: directly sowed rice plant: application herbicide amount 320 g/ha
Method in brief: (§2)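 Seeds were sown in spots on sterilized diluvial soil in a plastic box and covered with about 1.5 cm of soil. Plants were then grown in a greenhouse at 25° C. to 30° C.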

Alopecurus myosuroides = assay: Test Example 5: herbicidal effect by foliage application, plastic box (symbol J); conditions: 3 weeks after application
Method in brief: (§3)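 Sowing in sterilized diluvial soil, 14 days' greenhouse growth at 25° C. to 30° C., then uniform small-sprayer foliar application of aqueous emulsion dilution; plants scored three weeks afterwards.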

corn [2] = assay: Test Example 5: effect on crop by foliage application, plastic box (symbol c); conditions: 3 weeks after application
Method in brief: as §1

Digitaria ciliaris = assay: Test Example 4: herbicidal effect by soil treatment (symbol F); conditions: for Herbicidal effect grade, F: Digitaria ciliaris: application herbicide amount 320 g/ha
Method in brief: (§4)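 Seeds were sown in sterilized diluvial soil, covered with about 1.5 cm of soil, and the soil surface was sprayed with a water-diluted emulsion of the compound at a predetermined rate. Plants grew in a greenhouse at 25° C. to 30° C.; effects were scored visually 3 weeks after application.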

rapeseed = assay: Test Example 4: effect on crop by soil treatment (symbol g); conditions: for g: rapeseed, effect grade on crop: 320 g/ha; for Effect on crop grade, g: rapeseed: application herbicide amount 320 g/ha
Method in brief: as §2

[3] = system: Echinochloa crus-galli var. crus-galli; assay: Test Example 5: herbicidal effect by foliage application, plastic box (symbol H); conditions: 3 weeks after application
Method in brief: as §3

Avena fatua = assay: Test Example 4: herbicidal effect by soil treatment (symbol I); conditions: for Herbicidal effect grade, I: Avena fatua: application herbicide amount 320 g/ha
Method in brief: as §4

[4] = application herbicide amount 320 g/ha
[5] = application herbicide amount 269 g/ha

| SMILES | herbicidal effect on D (Leptochloa chinensis), grade 0-5 (Leptochloa chinensis; [4]) | d: soybean, effect on crop (criteria 0-5) (soybean; 320 g/ha) | Herbicidal effect grade, C: Monochoria vaginalis (Monochoria vaginalis; [4]) | c: corn, effect grade on crop (corn [1]) | b: directly sowed rice plant, effect grade on crop (rice) | J: Alopecurus myosuroides, herbicidal effect (criteria 0-5) (Alopecurus myosuroides; 320 g/ha) | c: corn, effect on crop (criteria 0-5) (corn [2]; 320 g/ha) | F: Digitaria ciliaris, herbicidal effect grade (Digitaria ciliaris; 320 g/ha) | g: rapeseed, effect grade on crop (rapeseed) | H: Echinochloa crus-galli var. crus-galli, herbicidal effect (criteria 0-5) ([3]; 320 g/ha) | I: Avena fatua, herbicidal effect grade (Avena fatua; 320 g/ha) | D (Leptochloa chinensis) herbicidal effect grade (Leptochloa chinensis; [4]) | d: soybean, effect on crop grade (soybean; 320 g/ha) | Effect on crop grade, c: corn (corn [1]) | Effect on crop grade, b: directly sowed rice plant (rice) | J: Alopecurus myosuroides, herbicidal effect grade (Alopecurus myosuroides; 320 g/ha) | c: corn, effect on crop grade (corn [2]; 320 g/ha) | Herbicidal effect grade, F: Digitaria ciliaris (Digitaria ciliaris) | Effect on crop grade, g: rapeseed (rapeseed) | H: Echinochloa crus-galli var. crus-galli, herbicidal effect grade ([3]; 320 g/ha) | also measured |
| --- | --- | --- | --- | --- | --- | --- | --- | --- | --- | --- | --- | --- | --- | --- | --- | --- | --- | --- | --- | --- | --- |
| CC(CC1CC(O)=C(c2c(C)cc(C)cc2C)C1=O)=NOCc1ccc(Cl)cc1 (centres unmarked) [1-137] | 5 (Herbicidal ratio of 90% or more (almost completely withered)) | 0 (Herbicidal ratio of 5% or lower (almost no effect)) | 3 (Herbicidal ratio of 40% or higher and lower than 70%) | 0 (Herbicidal ratio of 5% or lower (almost no effect)) | 5 (Herbicidal ratio of 90% or more (almost completely withered)) | 5 (Herbicidal ratio of 90% or more (almost completely withered)) | 3 (Herbicidal ratio of 40% or higher and lower than 70%) | 5 (Herbicidal ratio of 90% or more (almost completely withered)) | 0 (Herbicidal ratio of 5% or lower (almost no effect)) | 5 (Herbicidal ratio of 90% or more (almost completely withered)) | 2 (Herbicidal ratio of 20% or higher and lower than 40%) |  |  |  |  |  |  |  |  |  |  |
| CON=C(C)CC1CC(OC(=O)CN(C)C(=O)c2ccccc2)=C(c2c(C)cc(C)cc2C)C1=O (centres unmarked) [1-139] | 5 (Herbicidal ratio of 90% or more (almost completely withered)) | 1 (Herbicidal ratio of 5% or higher and lower than 20%) | 1 (Herbicidal ratio of 5% or higher and lower than 20%) | 5 (Herbicidal ratio of 90% or more (almost completely withered)) | 5 (Herbicidal ratio of 90% or more (almost completely withered)) | 5 (Herbicidal ratio of 90% or more (almost completely withered)) | 5 (Herbicidal ratio of 90% or more (almost completely withered)) | 5 (Herbicidal ratio of 90% or more (almost completely withered)) | 1 (Herbicidal ratio of 5% or higher and lower than 20%) | 5 (Herbicidal ratio of 90% or more (almost completely withered)) | 4 (Herbicidal ratio of 70% or higher and lower than 90%) |  |  |  |  |  |  |  |  |  |  |
| CCC(Oc1ccc2ncc(Br)cc2c1)C(=O)OC1=C(c2c(C)cc(C)cc2C)C(=O)C(CC(C)=NOC)C1 (centres unmarked) [1-140] | 5 (Herbicidal ratio of 90% or more (almost completely withered)) | 3 (Herbicidal ratio of 40% or higher and lower than 70%) | 3 (Herbicidal ratio of 40% or higher and lower than 70%) | 4 (Herbicidal ratio of 70% or higher and lower than 90%) | 5 (Herbicidal ratio of 90% or more (almost completely withered)) | 5 (Herbicidal ratio of 90% or more (almost completely withered)) | 4 (Herbicidal ratio of 70% or higher and lower than 90%) | 5 (Herbicidal ratio of 90% or more (almost completely withered)) | 4 (Herbicidal ratio of 70% or higher and lower than 90%) | 5 (Herbicidal ratio of 90% or more (almost completely withered)) | 4 (Herbicidal ratio of 70% or higher and lower than 90%) |  |  |  |  |  |  |  |  |  |  |
| CC(=O)C(C)C1CC(O)=C(c2c(C)cc(C)cc2C)C1=O (centres unmarked) [2-005] |  |  |  |  |  |  |  |  |  |  |  |  |  |  |  |  |  |  |  |  | herbicidal effect on D (Leptochloa chinensis), grade 0-5 (Leptochloa chinensis; [5]): 5 (Herbicidal ratio of 90% or more (almost completely withered)); d: soybean, effect on crop grade (soybean; 269 g/ha): 0 (Herbicidal ratio of 5% or lower (almost no effect)); Herbicidal effect grade, C: Monochoria vaginalis (Monochoria vaginalis; [5]): 0 (Herbicidal ratio of 5% or lower (almost no effect)); c: corn, effect on crop grade (corn [1]; [5]): 0 (Herbicidal ratio of 5% or lower (almost no effect)); b: directly sowed rice plant, effect on crop grade (rice; [5]): 5 (Herbicidal ratio of 90% or more (almost completely withered)); J: Alopecurus myosuroides, herbicidal effect grade (Alopecurus myosuroides; 269 g/ha): 5 (Herbicidal ratio of 90% or more (almost completely withered)); c: corn, effect on crop grade (corn [2]; 269 g/ha): 3 (Herbicidal ratio of 40% or higher and lower than 70%); F: Digitaria ciliaris, herbicidal effect grade (Digitaria ciliaris; [5]): 5 (Herbicidal ratio of 90% or more (almost completely withered)); g: rapeseed, effect on crop grade (rapeseed; [5]): 4 (Herbicidal ratio of 70% or higher and lower than 90%); H: Echinochloa crus-galli var. crus-galli, herbicidal effect grade ([3]; 269 g/ha): 5 (Herbicidal ratio of 90% or more (almost completely withered)); I: Avena fatua, herbicidal effect grade (Avena fatua; [5]): 0 (Herbicidal ratio of 5% or lower (almost no effect)) |
| CC#Cc1cc(C)c(C2=C(O)CC(CC(=NOC)C3CC3)C2=O)c(C)c1 (centres unmarked) [9-008] |  |  | 3 (Herbicidal ratio of 40% or higher and lower than 70%) |  |  |  |  |  |  |  |  | 5 (Herbicidal ratio of 90% or more (almost completely withered)) | 3 (Herbicidal ratio of 40% or higher and lower than 70%) | 4 (Herbicidal ratio of 70% or higher and lower than 90%) | 5 (Herbicidal ratio of 90% or more (almost completely withered)) | 5 (Herbicidal ratio of 90% or more (almost completely withered)) | 5 (Herbicidal ratio of 90% or more (almost completely withered)) | 5 (Herbicidal ratio of 90% or more (almost completely withered)) | 4 (Herbicidal ratio of 70% or higher and lower than 90%) | 5 (Herbicidal ratio of 90% or more (almost completely withered)) | Herbicidal effect grade, I: Avena fatua (Avena fatua): 3 (Herbicidal ratio of 40% or higher and lower than 70%) |
| Cc1cc(Br)cc(C)c1C1=C(O)CC(CC(=NOCC(F)(F)F)C2CC2)C1=O (centres unmarked) [9-009] |  |  | 0 (Herbicidal ratio of 5% or lower (almost no effect)) |  |  |  |  |  |  |  |  | 5 (Herbicidal ratio of 90% or more (almost completely withered)) | 0 (Herbicidal ratio of 5% or lower (almost no effect)) | 0 (Herbicidal ratio of 5% or lower (almost no effect)) | 0 (Herbicidal ratio of 5% or lower (almost no effect)) | 4 (Herbicidal ratio of 70% or higher and lower than 90%) | 3 (Herbicidal ratio of 40% or higher and lower than 70%) | 5 (Herbicidal ratio of 90% or more (almost completely withered)) | 0 (Herbicidal ratio of 5% or lower (almost no effect)) | 5 (Herbicidal ratio of 90% or more (almost completely withered)) | Herbicidal effect grade, I: Avena fatua (Avena fatua): 0 (Herbicidal ratio of 5% or lower (almost no effect)) |
| CC(CC1CC(O)=C(c2c(C)cc(-n3cc(Cl)cn3)cc2C)C1=O)=NOCC(F)(F)F (centres unmarked) [9-010] |  |  | 1 (Herbicidal ratio of 5% or higher and lower than 20%) |  |  |  |  |  |  |  |  | 5 (Herbicidal ratio of 90% or more (almost completely withered)) | 2 (Herbicidal ratio of 20% or higher and lower than 40%) | 1 (Herbicidal ratio of 5% or higher and lower than 20%) | 5 (Herbicidal ratio of 90% or more (almost completely withered)) | 5 (Herbicidal ratio of 90% or more (almost completely withered)) | 3 (Herbicidal ratio of 40% or higher and lower than 70%) | 5 (Herbicidal ratio of 90% or more (almost completely withered)) | 0 (Herbicidal ratio of 5% or lower (almost no effect)) | 5 (Herbicidal ratio of 90% or more (almost completely withered)) | Herbicidal effect grade, I: Avena fatua (Avena fatua): 4 (Herbicidal ratio of 70% or higher and lower than 90%) |
